Experimental data published in patent US7442794B2, “Rearranged pentanols, a process for their production and their use as anti-inflammatory agents” (Schering AG, priority 2003, dated 2008).

Tests used:
[1] = system: secretion of cytokine IL-8 in human monocyte cell line THP-1 triggered by lipopolysaccharide (LPS); assay: Inhibition of LPS-triggered secretion of cytokine IL-8 in THP-1 cells (ELISA); type: cell-based; details: LPS-triggered IL-8 secretion, THP-1, supernatant ELISA, read-out: inhibition IC50(IL8)
Method: The concentration of the cytokines was determined in the supernatant by means of commercially available ELISA kits.

[2] = biological target: glucocorticoid receptor (GR) (Homo sapiens, UniProt P04150); assay: biochemical
Excerpt: The binding of the substances to the glucocorticoid receptor (GR) and other steroid hormone receptors (mineral corticoid receptor (MR), progesterone receptor (PR) and androgen receptor (AR)) is examined with the aid of recombinantly produced receptors. Cytosol preparations of Sf9 cells, which had been infected with recombinant baculoviruses, which code for the GR, are used for the binding studies.

glucocorticoid receptor (GR), sequence (P04150 whole entry, species assumed): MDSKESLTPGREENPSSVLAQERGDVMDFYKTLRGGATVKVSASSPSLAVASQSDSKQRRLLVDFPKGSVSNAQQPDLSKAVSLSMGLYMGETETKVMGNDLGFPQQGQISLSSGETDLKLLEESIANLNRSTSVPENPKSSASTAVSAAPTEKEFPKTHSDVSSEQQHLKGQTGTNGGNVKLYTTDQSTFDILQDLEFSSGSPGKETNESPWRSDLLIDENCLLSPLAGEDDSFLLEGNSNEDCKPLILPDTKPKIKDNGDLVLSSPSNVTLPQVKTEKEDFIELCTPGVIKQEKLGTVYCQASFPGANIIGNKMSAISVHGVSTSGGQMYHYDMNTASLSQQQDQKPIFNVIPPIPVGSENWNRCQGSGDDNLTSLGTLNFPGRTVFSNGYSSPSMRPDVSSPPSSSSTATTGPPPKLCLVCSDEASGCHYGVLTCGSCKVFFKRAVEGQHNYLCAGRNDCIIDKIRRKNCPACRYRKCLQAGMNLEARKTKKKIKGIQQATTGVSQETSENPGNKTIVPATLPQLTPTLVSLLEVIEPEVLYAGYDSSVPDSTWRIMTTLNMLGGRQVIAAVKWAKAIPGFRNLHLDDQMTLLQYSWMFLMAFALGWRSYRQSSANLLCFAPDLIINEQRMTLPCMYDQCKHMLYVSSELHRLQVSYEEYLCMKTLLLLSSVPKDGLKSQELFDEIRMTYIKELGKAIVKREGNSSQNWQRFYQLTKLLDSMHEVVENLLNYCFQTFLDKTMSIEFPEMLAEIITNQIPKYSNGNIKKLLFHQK

melting point [°C]	IC50 [1] [nM]	IC50 [2] [nM]	SMILES
72 to 73	–	–	C=C(C)CC(O)(C(Nc1ccc(F)c2nc(C)ncc12)c1ccc(Cl)cc1OC)C(F)(F)F (racemic) [Example 7, 2-{4-Chloro-alpha-[(8-fluoro-2-methylquinazolin-5-yl)amino]-2-methoxybenzyl}-1,1,1-trifluoro-4-methylpent-4-en-2-ol]
–	25	64	C=C(C)CC(O)(C(Nc1cccc2c(=O)[nH]ccc12)c1cc(Br)ccc1O)C(F)(F)F (stereo not drawn) [Example 3, 5-{[1-(5-Bromo-2-hydroxyphenyl)-2-hydroxy-4-methyl-2-(trifluoromethyl)-pent-4-en-1-yl]amino}-isoquinolin-1(2H)-one]
